Earlier results as cited in patent US20140249101A1, “METHODS FOR TREATING HEPATITIS C VIRUS INFECTION” (Gilead Pharmasset LLC, priority 2013, published 2014).
Entries after “also recorded” stand apart in the source; their conditions may differ.

Tested on: hepatitis C virus (HCV)
Conditions: ribavirin alone

In the case of `NC(=O)c1ncn([C@@H]2O[C@H](CO)[C@@H](O)[C@H]2O)n1` [ribavirin, 1-β-d-ribofuranosyl-1H-1,2,4-triazole-3-carboxamide], the sustained virologic response is given as “did not produce any sustained virologic response; also recorded: has not been shown to produce SVR”, the “effect on HCV RNA levels” value (during or after therapy) is given as “did not reduce HCV RNA levels during or after therapy; also recorded: little or no effect on HCV RNA levels” and the “effect on alanine aminotransferase (ALT) levels” value (during the course of treatment, some patients with CHC) is given as “can normalize alanine aminotransferase (ALT) levels transiently; also recorded: normalized alanine aminotransferase (ALT) levels transiently”.
